From article PMC6611213, “Key Features Relevant to Select Antigens and TCR From the MHC-Mismatched Repertoire to Treat Cancer” (Frontiers in Immunology, 2019)

Experiments:
HLA-B7 monomers [1] = experiment: UV-mediated peptide exchange, B2M ELISA; type: binding, human; settings: for Stability after UV-peptide exchange, V50: Pooled values of at least three independent experiments, 0–200 μM peptide, UV 366 nm, B2M ELISA, Boltzmann fit; for HLA-stabilization potential: UV-peptide exchange, titrated peptide
Protocol: Biotinylated HLA-B7 monomers loaded with the UV-cleavable epitope AARG(J)TLAM were created as previously described ([33]). Peptide-HLA stability was measured using the protocol on the basis of Rodenko et al. ([34]). In brief, HLA-B7 monomers loaded with the UV-sensitive peptide were exposed to UV light (366 nm) in the presence of graded amounts (0–200 μM) of MPO peptides. Afterward 1:10 dilutions of the UV-exchanged monomers were adhered via streptavidin to the bottom of a 96-well plate (F96 maxisorp nunc-immune plate, Thermo scientific) and a beta-2-microglobulin ELISA was performed. The OD measurements were performed on a Tecan Sunrise multi-well-reader using Magellan software (version 7.2).
(§1) An E/T ratio of 1:1 was used. IFN-γ secretion of the supernatants after co-cultivation was measured by IFN-γ ELISA. […] (B) Beta-2-microglobulin (B2M)-ELISA of UV-mediated peptide exchanged HLA-B7 monomers. V50 values of a Boltzmann fitting for each MPO-peptide was determined by the optical density of B2M after degraded amounts of MPO-peptides were used for HLA-stabilization. […] (C) Pooled results of (B) for MPO5 (n = 4), MPO2 (n = 4), and MPO2+L1 (n = 3). Significance is calculated by Mann-Whitney Test: *p = 0.0286. TEXT PRINTED IN THE PICTURE: (B) MPO5: V50 = -5,204 | (B) MPO2: V50 = -4,610 | (B) MPO2+L1: V50 = -4,143
To verify the stability results of all three MPO-peptides experimentally, we performed HLA-B7 UV-peptide exchange assays with titrated amounts of peptide added to a constant concentration of HLA-B7 monomers bound to a UV-sensitive peptide. […] Thus, our results oppose the results of the NetMHC stability prediction. As a second experiment, we performed thermal shift assays for the MPO peptides to characterize their potential to prevent denaturation of the HLA-complex with ascending temperature (Supplementary Figure 3A; Table 1).

HLA-B7 monomers [2] = experiment: Thermal shift assay (DSF) of p-MHC complexes; type: binding, human; settings: for Thermal stability V50: 2 µM monomer, 150 mM NaCl, 10 mM HEPES pH 7.4, 3 mM EDTA, SYPRO orange, 21°C to 95°C, mean of quadruplicates (n=2); for thermal V50: Boltzmann fitting, rounded
Protocol: (§2) (A) Thermal shift assay of MPO-peptides in comparison to pp65 and MPO2+L1. Boltzmann fitting was used to determine V50 values (half-maximal denaturation) for each p-MHC complex after gradual heating from 21°C to 95°C. The mean of quadruplicates is shown (n=2). (B) Measurement of kinetic stability of indicated p-MHC complexes in comparison to pp65 and MPO2+L1 at constant temperature of 37°C. For the determination of half-maximal decay of p-MHC complexes, the slowest constant rates were used after fitting the fluorescence values with an exponential two-phase decay equation. The mean of quadruplicates is shown (n=2). (A,B) The fluorescence was measured by monitoring the intensity of SYPRO orange protein dye binding to hydrophobic core regions of unfolded p-MHC-complexes. (C) Occurrence of the MPO2 and MPO5 peptides on the surface of indicated AML cell lines with endogenous HLA-B7 expression using the heavy labelled Leu7 counterpart for detection. Logarithmic intensities of MPO peptide surface presentation for MPO peptides are shown in duplicates. MPO5 peptides are depicted in blue, MPO2 peptides are depicted in green (n=2).
(§3) For differential scanning fluorimetry (DSF), i.e. thermal shift assay and kinetic stability measurement, MPO2-, MPO2+L1-, MPO5- or pp65(417-426) peptide exchanged HLA-B7 monomers were used in a concentration of 2µM and analyzed on a StepOnePlus RT-PCR instrument (Applied Biosystems, Foster City, CA, USA), respectively. Samples were measured in a final volume of 20µl in MicroAmp^R Fast Optical 96-well reaction plates (Applied Biosystems) containing 150mM NaCl, 10mM HEPES (pH 7.4), 3mM EDTA and 10x SYPRO orange (Thermo Fisher Scientific) as described previously (Hellman et al., 2016). Analysis was done following the recommendations described elsewhere (Niesen et al., 2007) using the Microsoft Excel-based tool “DSF Analysis v3.0.2” available under the following link (ftp://ftp.sgc.ox.ac.uk/pub/biophysics). For accurate ﬁtting and calculation of V50-values, the Boltzmann equation was performed using GraphPad Prism (version 7.04, San Diego, USA). The kinetic stability was analyzed at constant 37°C and fluorescence was measured every 5 minutes. The fluorescent data were fit to a two-phase decay function and slowest rates for half-lives were calculated using GraphPad Prism (version 7.04, San Diego, USA).

HLA-B7 monomers [3] = experiment: Kinetic stability of p-MHC complexes at 37°C (DSF); type: binding, human; settings: DSF at constant 37°C; for Half-life 37°C: pH 7.4, SYPRO orange, two-phase decay, slowest rate, mean of quadruplicates (n=2)
Protocol: as §2, §3

HLA-B7+ LCL1 cell line = experiment: IFN-γ release by TCRF5.4-transduced PBMC to peptide-pulsed LCL1; type: cell-based, human; settings: peptide-pulsed LCL1, E/T 1:1, ELISA, triplicates (n = 2)
Protocol: as §1

[4] = system: HL60, ML2, NB4 and SiG-M5 AML cell lines; experiment: Cytokine secretion by TCR-transduced CD8+ T cells to AML cell lines; type: cell-based, human; settings: AML cell lines pulsed with MPO2 or MPO5
Protocol: The cytotoxic reactivity of T cells was tested by flow cytometry making use of changes in signal of the HLA-B7eGFP-transgenic target cells during co-cultivation for different time periods and effector to target ratios. For relative quantification of cytotoxicity, AccuCheck counting beads were used according to the manufacturer's protocol (Thermo Fisher Scientific) and the results were normalized to either non-TCR-transduced T cells or irrelevant T-cell clones. The supernatants of the co-cultivation were used to measure IFN-γ by ELISA (BD) or GM-CSF, IFN-γ, and lL-2 multiplexed by flow cytometry (Miltenyi Biotec) according to the manufacturer's instructions. […] If not stated otherwise, the effector to target ratio was set to 1:1 for the co-incubation assays using 20,000 cells in each fraction.
Half-maximal IFN-γ release was calculated using logarithmic dose-response fitting algorithm with variable slope (EC50) of GraphPad Prism. Mean ± SD of triplicates of one representative experiment are shown (n = 6). […] 10.000 effector cells were used in a ratio of 1:1. Standard deviations of the mean of triplicates are shown (n = 4). (Gi−iv) Cytokine secretion (GM-CSF, IFN-γ, and IL-2) measured by flow cytometry based multiplex analysis in response to selected AML cell lines is shown in triplicates either unpulsed or additionally pulsed with MPO2 or MPO5.

AML cell lines = experiment: Targeted MS of surface-presented peptides; set-up: species or system human; settings: targeted MS with heavy labelled peptides; MPO2 compared to MPO5 (n=2)
Protocol: as §2, with “MPO5 peptides are depicted in blue, MPO2 peptides are depicted in green (n=2).” left out
The MPO2 and MPO5 ligands were identified using an immunopeptidomic approach as previously described (Klar et al., 2014). For the targeted identification and relative quantification of both peptides, HLA-I peptides were purified from 5x10^8 cells of each cell line as previously described (Bassani-Sternberg et al., 2016). […]

Row | Sequence | Stability after UV-peptide exchange, V50 (HLA-B7 monomers [1]) [log10 M] | HLA-stabilization potential (HLA-B7 monomers [1]) | Thermal stability V50 (HLA-B7 monomers [2]) [°C] | thermal V50 (HLA-B7 monomers [2]) [°C] | Half-life 37°C (HLA-B7 monomers [3]) [h] | IFN-γ secretion by TCRF5.4-transduced T cells (HLA-B7+ LCL1 cell line) | Half-life (decay of HLA-complexes) 37°C (HLA-B7 monomers [3]) [h] | effect of additional peptide pulsing on cytokine secretion [4] | surface presentation on AML cell lines (AML cell lines)
1 | LTPAQLNVL [MPO2+L1] | −3.728 | lowest potential for HLA-stabilization | 44.0 | 44 | 2.9 | detected IFN-γ secretion |  |  | 
2 | NPRWDGERL [MPO5] | −5.535 | almost one log increased potential to rescue the HLA-B7 molecule | 46.4 | 46 | 4.1 |  | 4.1 | did not have a major impact on cytokine secretion | 
3 | TPAQLNVL [MPO2] | −4.671 |  | 46.3 | 46 | 3.5 |  | 3.5 | these differences could be compensated by additional MPO2 peptide pulsing | markedly lower presented on the surface of all AML cells lines compared to MPO5
4 | TPRVTGGGAM [pp65, pp65(417-426) control peptide […], reference compound] |  |  | 50.0 | 50 | 5.6 |  |  |  | 
